In US9850542B2, “Gene signature to predict homologous recombination (HR) deficient cancer” (Board of Regents, The University of Texas System, priority 2013, dated 2017):

Legend:
HCC1937 = test: Drug combination study by MTT assay (combination index, CompuSyn); format: cell-based, human
Protocol: Cell Proliferation Assay. Cell proliferation was measured by MTT (3-(4,5-dimethylthiazol-2-yl)-2,5-diphenyltetrazolium bromide; Sigma) reduction. To test the cell proliferation rate, 500-1×10^4 cells/well were seeded in a 96-well plate in a total volume of 100 μL in triplicate in each experiment. The next day, cells were treated with indicated concentrations of drugs. Five days later, 20 μL of MTT substrate (2 mg/mL) was added to each well and incubated with cells for 3 hr. Then the culture medium was removed, and 100 μL of dimethyl sulfoxide was added. Plates were read at 490 nm and 650 nm (background) in a microplate reader (Molecular Devices). After subtraction of background, the cell viability was calculated as fold change relative to control cells. The OD values were analyzed with Graphpad Prism 6.0 software. Each value is relative to the value in the cells treated with vehicle control. Results are shown as mean±SEM from three independent experiments.
Drug Combination Studies. […] CI<1 indicated synergism, and CI=1 and CI>1 indicated additive and antagonism, respectively.

[1] = tested on: cancer cell lines with and without the HRD gene signature; test: Colony formation and MTT assay in cancer cell lines with intact or defective HR; format: cell-based, human; conditions: prostate, renal, lung, ovarian, breast cancer lines; colony formation, MTT
Protocol: FIGS. 2A-D. The HRD Gene Signature Predicts Sensitivity to PARP Inhibitors in Cancer Cells. (A) Cell lines with intact HR (I) and defective HR (D) were selected for five cancer types as follows: prostate cancer: PC-3 (D) and DU-145 (I); renal cancer: ACHN (D) and 7860-O (I); lung cancer: H266 (D) and H522 (I); ovarian cancer: OVCAR-3 (D) and OVCAR-8 (I); and breast cancer: MCF7 (D), MDA-MB-231 (I), and HCC1937 […]. Modified HR repair assay was performed by transfecting cells with DRGFP DSB substrate plasmid and I-SceI plasmid through electroporation at 270V, 975uF using a BioRad genepulsar II. Flow cytometry analysis was performed 48 to 72 hours later to detect GFP-positive cells. […] (B-D) Colony formation assay was performed with the indicated concentrations of olaparib (B) or rucaparib (C), or (D) cell lines were seeded in 96-well plates, treated with olaparib at the indicated concentrations for 5 days, and then analyzed by MTT assay. […]
Cell Proliferation Assay. Cell proliferation was measured by MTT (3-(4,5-dimethylthiazol-2-yl)-2,5-diphenyltetrazolium bromide; Sigma) reduction. […] Plates were read at 490 nm and 650 nm (background) in a microplate reader (Molecular Devices). After subtraction of background, the cell viability was calculated as fold change relative to control cells. The OD values were analyzed with Graphpad Prism 6.0 software. […]

[2] = tested on: BRCA-negative patients with advanced-stage triple-negative breast cancer; conditions: 15 BRCA-negative patients, advanced-stage TNBC; cited from earlier work
[3] = tested on: BRCA1/2 mutation carriers with recurrent ovarian cancer; conditions: phase II; cited from earlier work
BRCA mutation carriers = conditions: phase I, oral monotherapy; cited from earlier work
MCF-10A cells = test: Colony formation assay in MCF-10A knockdown cell lines; format: cell-based, human
Protocol: FIGS. 3A-C. Loss of PTEN Reverses HRD and Confers PARP Inhibitor Resistance to BRCA1-Depleted Cells through Over-expression of TTK. (A) Modified HR repair assay was performed in MCF-10A cells by transfecting cells with DRGFP DSB substrate plasmid and I-SceI plasmid through electroporation, followed by analysis of GFP-positive cells by flow cytometry 48 to 72 hours later. Each value is relative to the percentage of GFP-positive cells in I-SceI-transfected control cells. Results are show as mean±SD from three independent experiments. Student's t-test was performed from results of three independent experiments. (B) Cells were seeded at a very low density and treated with indicated concentrations of olaparib for 10 to 15 days to allow colony formation. The rate of cell survival in response to olaparib was determined by colony formation assay. Each value was relative to control cells without treatment and represents the mean±SD from three independent experiments. […] (C) Quantitative analysis of HR repair assay in cells transfected with TTK plasmids or the indicated siRNAs. Each value is relative to the percentage of GFP-positive cells in I-SceI-transfected control cells. Results are shown as mean±SD from three independent experiments. […] BRCA1 SMARTpool siRNA was used as a positive control.
FIGS. 11A-B. The HRD Gene Signature Predicts HR-deficiency and Sensitivity to PARP Inhibitors in Cancer Cells. (A) Cells were seeded in a very low density and treated with indicated concentrations of PARP inhibitor olaparib for 10-15 days to allow colony formation. The rate of cell survival was determined by colony-formation assay. Colonies were stained with 0.25% crystal violet/25% methanol and counted both manually and digitally using ImageJ software. […]
Colony Forming Assay. […] Colonies were counted manually (colonies containing 50 or more cells were counted) or digitally using ImageJ software with customized parameters optimized based on three preliminary manual counts or blindly chosen. […]

[4] = tested on: breast cancer patients with BRCA1/2 mutations; conditions: phase II; cited from earlier work
HCC1937 cells = test: Apoptosis analysis; format: cell-based, human; conditions: olaparib plus TTK inhibitor, 48 hours
Protocol: FIGS. 14A-B. TTK inhibitor enhances apoptosis induced by PARP inhibitor. (A) TTK expression levels in basal-like or luminal breast cancer cell lines and immortal human mammalian epithelial cells. Cell lysates were harvested from indicated cell lines and subjected to Western blot analysis. (B) HCC1937 cells were treated with olaparib, or combined with TTK inhibitor AZ3146 for 48 hours and subjected to apoptosis analysis. Each value represents the mean±SD from three independent experiments.

Compound: CCNC(=O)c1noc(-c2cc(C(C)C)c(O)cc2O)c1-c1ccc(CN2CCOCC2)cc1 [AUY922]
- synergistic effect on PARP inhibitor treatment (HCC1937; MTT): synergistic effect
- synergy compared with vorinostat combinations (HCC1937; combinations with PARP inhibitors): relatively higher synergy

Compound: O=C(c1cc(Cc2n[nH]c(=O)c3ccccc23)ccc1F)N1CCN(C(=O)C2CC2)CC1 [olaparib]
- sensitivity of cell lines with the HRD gene signature compared with cell lines with intact HR repair [1]: more sensitive
- complete or partial responses [2]: no complete or partial responses
- objective response rate [3]: 33%
- BRCA mutation carriers that did not respond (BRCA mutation carriers): more than 35%
- sensitization by BRCA1-PTEN double knockdown (MCF-10A cells; MCF-10A double knockdown cells): did not sensitize cells
- cellular sensitivity of BRCA1-, RAD51- and BRIT1-deficient cells (MCF-10A cells; MCF-10A knockdown vs control cells, 10-15 days): greatly increased cellular sensitivity
- sensitization by BRCA1 or PTEN deficiency (MCF-10A cells; MCF-10A single knockdown cells): sensitized cells
- response rate [4]: 41%

Compound: CNCc1ccc(-c2[nH]c3cc(F)cc4c3c2CCNC4=O)cc1 [rucaparib]
- sensitivity of cell lines with the HRD gene signature compared with cell lines with intact HR repair [1]: more sensitive

Compound: AZ3146
- apoptosis (HCC1937 cells): enhanced olaparib-induced apoptosis
